One compound from US20250339391A1, “METHODS FOR EFFECTIVE MANAGEMENT OF PAIN” (South Rampart Pharma, Inc., priority 2024, published 2025) can be followed below.

This series has as its system dog. Particulars: in vivo. Here is the method:
To determine the appropriate doses, maximum tolerated dose studies (non-GLP) were conducted prior to the definitive GLP systemic toxicity studies. SRP-001 was evaluated by a full battery of GLP-compliant toxicity studies. Systemic toxicity was evaluated in Sprague-Dawley rats and Beagle dogs by oral administration over 28 days (FIG. 24 and FIGS. 27-28, Table 2). […]

For `CCN(CC)C(=O)c1ccccc1S(=O)(=O)NCC(=O)Nc1ccc(O)cc1` [SRP-001, N,N-diethyl-2-[[2-(4-hydroxyanilino)-2-oxo-ethyl]sulfamoyl]benzamide], the “mortality after single doses” value was “did not result in any mortality”.
